Legend:
Format in all cases: cell-based, human
GR = GR expression (western blot / mRNA RQ)
Description: (§1) Total lysate of 10^6 cells was prepared in 50 μl protein sample buffer (PSB) ×1.5. The following antibodies were used for immuno-blotting: anti-β-Catenin and anti-GR (BD Transduction Laboratories); anti-BIM (Calbichem); anti-CDK2, anti-c-Myb, anti-DVL1 and anti-c-Myc (Santa Cruz Biotechnology); anti-cycline E1 (Cell Signaling Technology); and anti-a-Tubulin (Sigma). Immune-blots images are presented by Image Lab 3.0 software. Specific bands were cropped by transferring images to Adobe Photoshop CS5.
(§2) Total RNA was isolated using miRNeasy mini kit (QIAGEN). For Syber green assay, precipitated RNA samples were treated with Poly A Tailing kit (Ambion). c-DNA was prepared by M-MLV reverse transcriptase (Invitrogen). q-PCR amplification of mRNA was operated by Platinum SYBER Green (Invitrogen) with the following primers: FKBP5 5′ […] 3′ and 5′ GTCTCCAATCATCGGCGTT 3′, SGK1 5′ […] 3′ and 5′ […] 3′. For Taqman based PCR, c-DNA was prepared by Taqman MicroRNA Reverse Transcription Kit (Applied Biosystem). q-PCR was performed using TaqMan 2× Universal PCR Master Mix (Applied Biosystem).

[1] = tested on: MOLT-4, CUTLL, BJAB and SUD-136 cells; test: Apoptosis by PI uptake (flow cytometry), GC-resistant cell lines; conditions: for miR-103-mediated GCIA after re-expression of miR-17˜92a members: miR-103 overexpressing BJAB; for miR-103-mediated GCIA after re-expression of miR-17˜92a members / Conferring GC sensitivity (GCIA) by miRNA transfection: Dex 72 hrs; for Conferring GC sensitivity (GCIA) by miRNA transfection: BJAB and MOLT-4 transfected with miRNA overexpression plasmids
Source text: (§3) Cell lines models of human T-cell acute lymphocytic leukemia (T-ALL) and Burkitt's lymphoma (BL), including the glucocorticoid (GC) sensitive cells represented by CEM-C7H2 (T-ALL, the sensitive sub-clone of CCRF-CEM), LOUCY (T-ALL) and DAUDI (BL), and the GC resistant cells represented by MOLT-4 (T-ALL), CUTLL (T-ALL), BJAB (BL) and SUD-136 (BL) were used. At least three kinds of cells were used in each type of cancer in order to minimize cell type specific variables. In addition, two types of malignancies were examined, T-ALL to represent leukemia behavior and BL to represent lymphoma behavior. Bone marrow cells were collected from normal donors and ALL patients. All experiments with human cells were approved by an institutional Helsinki committee and the Ministry of Health. Dexamethasone (DEX), RU486, Propidium iodide (PI), puromycin and Tri-reagent were purchased from sigma and TransIT-LT1 from Mirus.
(§4) Cells were treated with 100 nM Dex for 72 hrs. Percent apoptotic cells was determined by PI-uptake as measured in a FACS Calibur flow cytometer (BD).

c-Myc = c-Myc expression (western blot / RQ); conditions: miR-103 overexpressing cells; further downregulated following Dex
Description: as §1, §2

BIM = BIM expression (western blot / mRNA RQ)
Description: as §1, §2

DVL1 and β-Catenin = DVL1 and β-Catenin expression (western blot)
Description: as §1

BJAB cells = test: Total cell number / viability by flow cytometry; conditions: miR-103 overexpressing BJAB
Description: FIGS. 6A-E: miR-103 inhibits cellular proliferation. (A) Relative Quantification of miR-103 in BM cells of […]. (B) CEM-C7H2, BJAB and miR-103 overexpressing BJAB cells were treated with Dex (24 hrs), labeled with BRDU (1 hr), fixed and analyzed by flow cytometry. (C) miR-103 overexpressing BJAB, SUD-136, DAUDI and MOLT-4 cells were treated with Dex for 72 hrs. Cellular proliferation was measured by BRDU staining. (D) miR-103 overexpressing BJAB cells were treated with Dex and/or RU486 for 72 hrs. Cell viability was determined by flow cytometry. (E) miR-103 overexpression or sponged cells were treated with Dex and then subjected to western blot analysis using anti Cyclin E1 and CDK2 antibodies. C=Untreated, D=Dex-treated.

miR-17˜92a = test: miR-17~92a cluster expression (RQ / fold change); conditions: resistant BJAB
Description: RNA of cell samples was extracted by Tri-reagent. 1 μg of each sample was sequenced on an Illumina Genome Analyzer as described by Son et al, Curr Protoc Microbiol; Chapter 1: Unit 1E 4.
as §2, with “GTCTCCAATCATCGGCGTT” left out

[2] = tested on: CEM-C7H2, LOUCY and DAUDI cells; test: Apoptosis by PI uptake (flow cytometry), GC-sensitive cell lines; conditions: LOUCY overexpressing miR-103, Dex-treated
Source text: as §3, §4

c-Myb = c-Myb expression (western blot); conditions: CEM-C7H2 and MOLT-4 T-ALL cells
Description: as §1

cycline E1 and CDK2 = test: Cycline E1 and CDK2 expression (western blot / RQ); conditions: miR-103 overexpressing cells
Description: as §1, §2

[3] = tested on: CEM-C7H2, BJAB, SUD-136, DAUDI and MOLT-4 cells; test: BRDU incorporation cellular proliferation assay; conditions: miR-103 overexpressing cells, no Dex
Source text: A BrdU Cell Proliferation Assay kit (Exalpha Biological, Inc) or a BrdU Flow Kit (BD Pharmingen) were used to determine cellular proliferation.

miRNAs = test: Deep sequencing of small RNAs; conditions: CEM-C7H2, Dex 24 hrs
Description: RNA of cell samples was extracted by Tri-reagent. 1 μg of each sample was sequenced on an Illumina Genome Analyzer as described by Son et al, Curr Protoc Microbiol; Chapter 1: Unit 1E 4. Data analysis was performed by a miRNAkey application Ronen et al., Bioinformatics; 26(20):2615-2616.

PANK3-GRE = test: Chromatin immunoprecipitation of PANK3-GRE; conditions: CEM-C7H2
Description: The EpiTech ChIP OneDay kit (Qiagen) was employed. IP antibodies used were: Rabbit-IgG (Qiagen), anti-GR (cell signaling) and anti-H3K4me1 (abcam). qRT-PCR was performed by syber green enzyme with the following primers: PANK3-GRE, GAPDH positive control and MYOD1 negative control (Qiagen). GR-GRE primers were planned as follow: Fw-5′ […] 3′ and 5′ […] 3′. % Enrichment was calculated according to the formula: 2̂(CT Mean(Input)−CT Mean of (Interested fraction))*100.

miR-103 = miR-103 level in patient peripheral blood lymphoblasts after PRED (qRT-PCR)
Description: Blood and bone marrow (BM) samples of pediatric acute lymphoblastic leukemia (ALL) and chronic lymphoblastic leukemia (CLL) patients were collected from hospitals for testing, and the treatment and clinical status of these patients cross-checked in a blind manner. The outline of the study was to collect blood samples from ALL patients at diagnosis, incubate the blood with or without PRED overnight and then measure miR-103 expression levels. 11 BMs of ALL patients and 6 BMs of normal pediatric donors were analyzed. Furthermore, peripheral blood samples from 8 pediatric ALL patients and 1 CLL patient were collected. The CLL and 5 ALL samples were treated with PRED in vitro while from the additional 3 ALL patients blood was taken at diagnosis and at day 1 following PRED treatment.
The outline of the study was to collect blood samples from acute lymphoblastic leukemia (ALL) patients at diagnosis, incubate the blood with or without PRED overnight and then measure miR-103 expression levels. 11 BMs of ALL patients and 6 BMs of normal pediatric donors were analyzed. Furthermore, peripheral blood samples from 8 pediatric ALL patients and 1 chronic lymphoblastic leukemia (CLL) patient were collected. The CLL and 5 ALL samples were treated with PRED in vitro while from the additional 3 ALL patients blood was taken at diagnosis and at day 1 following PRED treatment. […]

Compound: miR-18a: human miRNA of miR-17˜92a, SEQ ID NO: 19, re-expressed from plasmid (UAAGGUGCAUCUAGUGCAGAUAG; listed as Homo sapiens) [reference compound]
- miR-103-mediated GR upregulation after restoring miR-18a (GR; miR-103 transfected cells transfected with miR-18a): inhibition of the GR upregulation mediated by miR-103
- miR-103-mediated GCIA after re-expression of miR-17˜92a members [1]: counteracted the miR-103-mediated GCIA

Compound: miR-16: human miRNA, SEQ ID NO: 5, overexpression plasmid (UAGCAGCACGUAAAUAUUGGCG; listed as Homo sapiens)
- Conferring GC sensitivity (GCIA) by miRNA transfection [1]: sensitized

Compound: miR-103: human miRNA, SEQ ID NO: 1 AGCAGCAUUGUACAGGGCUAUGA, expressed from overexpression plasmid (Table 3) (listed as Homo sapiens)
- GR protein and mRNA on miR-103 overexpression (GR; miR-103 overexpressing cells): both GR protein and mRNA upregulation
- c-Myc expression on miR-103 overexpression (c-Myc): reduced
- Conferring GC sensitivity (GCIA) by miRNA transfection [1]: particularly effective in conferring GC sensitivity
- Apoptosis of miR-103 overexpressing resistant cells with Dex ([1]; MOLT-4, CUTLL, BJAB, SUD136 overexpressing miR-103, Dex-treated): underwent significant apoptosis
- Apoptosis on miR-103 overexpression without Dex ([1]; untreated cells): only a minor effect on apoptosis
- BIM expression on miR-103 overexpression (BIM; protein and mRNA, augmented by Dex): induced BIM upregulation both at the protein and mRNA levels
- DVL1 and β-Catenin on miR-103 overexpression (DVL1 and β-Catenin; Burkitt's lymphoma cells): downregulated
- DVL1 expression on miR-103 overexpression (DVL1 and β-Catenin; CEM-C7H2): even upregulated
- β-Catenin level on miR-103 overexpression (DVL1 and β-Catenin; CEM-C7H2): unaffected
- β-Catenin level on miR-103 overexpression (DVL1 and β-Catenin; MOLT4): even upregulated
- Total cell number in the culture (BJAB cells): reduced the total cell number
- miR-17˜92a expression on miR-103 overexpression (miR-17˜92a): reduced expression
- GC induced apoptosis (GCIA) in miR-103 overexpressing cells [2]: became hyper-sensitive to GCIA
- c-Myb expression on miR-103 overexpression (c-Myb): downregulates
- Cycline E1 and CDK2 expression on miR-103 overexpression (cycline E1 and CDK2): downregulated
- Cell proliferation (BRDU) by miR-103 itself [3]: significantly reduced cell proliferation

Compound: miR-30d: human miRNA, SEQ ID NO: 3, overexpression plasmid (UGUAAACAUCCCCGACUGGAAG; listed as Homo sapiens)
- Conferring GC sensitivity (GCIA) by miRNA transfection [1]: sensitized

Compound: miR-20a: human miRNA of miR-17˜92a, SEQ ID NO: 14, re-expressed from plasmid (UAAAGUGCUUAUAGUGCAGGUAG; listed as Homo sapiens) [reference compound]
- miR-103-mediated GCIA after re-expression of miR-17˜92a members [1]: counteracted the miR-103-mediated GCIA
- BIM level after restoring miR-20a (BIM; miR-103 overexpressing BJAB transfected with miR-20a): re-suppressed

Compound: miR-15b: human miRNA, SEQ ID NO: 4, overexpression plasmid (UAGCAGCACAUCAUGGUUUACA; listed as Homo sapiens)
- Conferring GC sensitivity (GCIA) by miRNA transfection [1]: sensitized

Compound: miR-30e: human miRNA, SEQ ID NO: 2, overexpression plasmid (UGUAAACAUCCUUGACUGGAAG; listed as Homo sapiens)
- Conferring GC sensitivity (GCIA) by miRNA transfection [1]: sensitized

Compound: C[C@@H]1C[C@H]2[C@@H]3CCC4=CC(=O)C=C[C@]4(C)[C@@]3(F)[C@@H](O)C[C@]2(C)[C@@]1(O)C(=O)CO [Dex, Dexamethasone]
- Number of miRNAs most significantly modulated by Dex (miRNAs): 22
- PANK3-GRE enrichment, anti-GR antibody, Dex-treated compared with untreated (PANK3-GRE): approximately 5%

Compound: C[C@]12C=CC(=O)C=C1CC[C@@H]1[C@@H]2C(=O)C[C@@]2(C)[C@H]1CC[C@]2(O)C(=O)CO [PRED, prednisone]
- miR-103 level in peripheral malignant lymphoblasts after PRED (miR-103; PRED good responders (PGR) ALL patients): upregulated
- miR-103 level in peripheral malignant lymphoblasts after PRED (miR-103; prednisone poor response (PPR) ALL patients): downregulated
